Tests used:
SARS-CoV-2 3CLpro = SARS-CoV-2 3CLpro (Severe acute respiratory syndrome coronavirus 2, UniProt P0DTD1); experiment: FRET based protease assay, SARS-CoV-2 3CL; type: biochemical, SARS-CoV-2 (strain BetaCoV/Wuhan/WIV04/2019)
MERS-CoV 3CLpro = MERS-CoV 3CLpro (Middle East respiratory syndrome-related coronavirus, UniProt K9N638); experiment: biochemical; conditions: MERS IC50, 75 nM MERS-CoV 3CLpro, 6 μM peptide 1 substrate, 25° C., 1.5 hrs, pH 7.5
MERS-CoV 3CLpro, sequence (K9N638 3248-3553 limits assumed): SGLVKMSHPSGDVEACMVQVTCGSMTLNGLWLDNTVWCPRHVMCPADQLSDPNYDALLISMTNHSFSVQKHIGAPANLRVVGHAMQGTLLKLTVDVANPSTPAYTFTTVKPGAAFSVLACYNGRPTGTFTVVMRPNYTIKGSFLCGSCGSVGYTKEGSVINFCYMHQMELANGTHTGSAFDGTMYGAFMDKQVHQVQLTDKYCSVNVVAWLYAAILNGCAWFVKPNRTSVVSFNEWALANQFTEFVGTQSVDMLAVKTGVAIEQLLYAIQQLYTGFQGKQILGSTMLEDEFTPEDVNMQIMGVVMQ

SMILES	IC50 (SARS-CoV-2 3CLpro) [nM]	IC50 (MERS-CoV 3CLpro) [nM]
CC(C)(C)OC(=O)N[C@H]1CCC[C@H]2CCNC(=O)[C@H]2C[C@@H](C#N)NC(=O)[C@@H]2[C@H]3CCC[C@H]3CN2C1=O [Example 100]	1000 to 20000	1000 to 20000
CC(C)(C)OC(=O)N[C@@]1(C)CCCCC[C@H]2CNC(=O)[C@H]2C[C@@H](C#N)NC(=O)[C@@H]2[C@@H]3[C@H](CN2C1=O)C3(C)C [Example 126]	> 20000	> 20000
CC(C)C[C@@H]1NC(=O)[C@@H](NC(=O)C(C)(C)C)CCCC[C@H]2CNC(=O)[C@@H]2C[C@@H](C#N)NC1=O [Example 54]	100 to 1000	100 to 1000
CC(C)(C)C(=O)N[C@H]1CCCC[C@H]2CNC(=O)[C@H]2C[C@@H](C#N)NC(=O)[C@@H]2CCCCN2C1=O [Example 71]	1000 to 20000	1000 to 20000
CC(C)C[C@@H]1NC(=O)CCCCCC[C@@H]2CNCC(=O)[C@H]2C[C@@H](C=O)NC1=O [Example 51]	1000 to 20000	> 20000
CC1(C)[C@@H]2[C@H]3C(=O)N[C@H](C#N)C[C@@H]4C(=O)NC[C@@H]4CCCC[C@H](NS(=O)(=O)c4ccccc4)C(=O)N3C[C@@H]21 [Example 154]	< 100	< 100
Cc1cc(C(=O)N[C@H]2CCCC[C@H]3CNC(=O)[C@H]3C[C@@H](C#N)NC(=O)[C@@H]3[C@@H]4[C@H](CN3C2=O)C4(C)C)on1 [Example 109]	< 100	< 100
CC(C)(C)C(=O)N[C@H]1C/C=C\[C@H]2CNC(=O)[C@H]2C[C@@H](C#N)NC(=O)[C@@H]2[C@@H]3[C@H](CN2C1=O)C3(C)C [Example 64]	> 20000	> 20000
CC(C)(C)OC(=O)N[C@H]1CCCC[C@H]2CNC(=O)[C@H]2C[C@@H](C#N)NC(=O)[C@@H]2[C@H]3CC[C@H](C3)N2C1=O [Example 127]	1000 to 20000	1000 to 20000
CC1(C)[C@@H]2[C@H]3C(=O)N[C@H](C#N)C[C@@H]4C(=O)NC[C@@H]4CCCC[C@H](Nc4cc(C(F)(F)F)ncn4)C(=O)N3C[C@@H]21 [Example 163]	< 100	100 to 1000
CC1(C(=O)N[C@H]2CCCC[C@H]3CNC(=O)[C@H]3C[C@@H](C#N)NC(=O)[C@@H]3[C@@H]4[C@H](CN3C2=O)C4(C)C)COC1 [Example 123]	< 100	100 to 1000
CC(C)C[C@@H]1NC(=O)[C@@H](CC2CCCC2)CCC[C@H]2CNC(=O)[C@@H]2C[C@@H](C=O)NC1=O [Example 18]	100 to 1000	100 to 1000
N#C[C@@H]1C[C@@H]2C(=O)NC[C@@H]2CCCC[C@H](NS(=O)(=O)c2ccc(F)cc2F)C(=O)N2C[C@@H]3CCC[C@@H]3[C@H]2C(=O)N1 [Example 155]	< 100	100 to 1000
CC(C)(C)C(=O)N[C@H]1CC/C=C/[C@H]2CNC(=O)[C@H]2C[C@@H](C#N)NC(=O)[C@@H]2[C@@H]3[C@H](CN2C1=O)C3(C)C [Example 61]	< 100	< 100
CC(C)C[C@@H]1NC(=O)[C@@H](C2CCCC2)CCC[C@H]2CNC(=O)[C@H]2C[C@@H](C=O)NC1=O [Example 13]	1000 to 20000	1000 to 20000
CC(C)(C)OC(=O)N[C@H]1CCCC[C@H]2CNC(=O)[C@H]2C[C@@H](C#N)NC(=O)[C@@H]2[C@H]3CCC[C@H]3CN2C1=O [Example 79]	< 100	100 to 1000
N#C[C@@H]1C[C@@H]2C(=O)NC[C@@H]2CCCC[C@H](NC(=O)C2(C(F)(F)F)CC2)C(=O)N2C[C@@H]3CCC[C@@H]3[C@H]2C(=O)N1 [Example 150]	< 100	< 100
CN1C[C@@H]2CCCC[C@H](NC(=O)OC(C)(C)C)C(=O)N3C[C@H]4[C@@H]([C@H]3C(=O)N[C@H](C#N)C[C@@H]2C1=O)C4(C)C [Example 140]	100 to 1000	100 to 1000
CC(C)(C)OC(=O)N[C@H]1CCCC[C@H]2CCNC(=O)C2C[C@@H](C#N)NC(=O)[C@@H]2[C@H]3CCC[C@H]3CN2C1=O (some centres unmarked) [Example 98]	100 to 1000	100 to 1000
CC(C)(C)OC(=O)N[C@H]1CCCC[C@H]2CNC(=O)[C@H]2C[C@@H](C#N)NC(=O)[C@H]2N(CC(F)(F)C2(C)C)C1=O [Example 146]	100 to 1000	100 to 1000
CC(C)(C)OC(=O)N[C@H]1CC/C=C\[C@H]2CCNC(=O)[C@H]2C[C@@H](C#N)NC(=O)[C@@H]2[C@@H]3[C@H](CN2C1=O)C3(C)C [Example 114]	< 100	100 to 1000
CC1(C)[C@@H]2[C@H]3C(=O)N[C@H](C#N)C[C@@H]4C(=O)NC[C@@H]4CCCC[C@H](NC(=O)CC4CCCC4)C(=O)N3C[C@@H]21 [Example 90]	< 100	100 to 1000
CC(C)(C)OC(=O)N[C@H]1CCCC[C@H]2CNC(=O)[C@H]2C[C@@H](C#N)NC(=O)[C@@H]2CCCCCN2C1=O [Example 143]	100 to 1000	100 to 1000
CC(C)(C)OC(=O)N[C@H]1CCC[C@H]2CNC(=O)[C@H]2C[C@@H](C#N)NC(=O)[C@@H]2[C@@H]3[C@H](CN2C(=O)C1)C3(C)C [Example 125]	1000 to 20000	> 20000
Cc1nc(C(=O)N[C@H]2CCCC[C@H]3CNC(=O)[C@H]3C[C@@H](C#N)NC(=O)[C@@H]3[C@@H]4[C@H](CN3C2=O)C4(C)C)cs1 [Example 113]	100 to 1000	< 100

SMILES	IC50 (SARS-CoV-2 3CLpro) [nM]	IC50 (MERS-CoV 3CLpro) [nM]
CC(C)C[C@@H]1NC(=O)CCCC[C@H]2CNC(=O)[C@@H]2C[C@@H](C#N)NC1=O [Example 24]	1000 to 20000	1000 to 20000
CC1(C)[C@@H]2[C@H]3C(=O)N[C@H](C#N)C[C@@H]4C(=O)NC[C@@H]4CCCC[C@H](NC(=O)c4ccncn4)C(=O)N3C[C@@H]21 [Example 91]	< 100	< 100
CC1(C)[C@@H]2[C@H]3C(=O)N[C@H](C#N)C[C@@H]4C(=O)NCC[C@@H]4CCCC[C@H](NC(=O)OC4CCCC4)C(=O)N3C[C@@H]21 [Example 124]	< 100	< 100
CC(C)C[C@@H]1NC(=O)CCCCC[C@@H]2CNC(=O)[C@H]2C[C@@H](C=O)NC1=O [Example 31]	> 20000	> 20000
CC(C)C[C@@H]1NC(=O)[C@@H](C2CCCC2)CCC[C@@H]2CNC(=O)[C@@H]2C[C@@H](C=O)NC1=O [Example 14]	100 to 1000	1000 to 20000
CC1(C)[C@@H]2[C@H]3C(=O)N[C@H](C#N)C[C@@H]4C(=O)NC[C@@H]4CCCC[C@H](NC(=O)C(C)(C)C(F)(F)F)C(=O)N3C[C@@H]21 [Example 141]	< 100	< 100
CC(C)C[C@@H]1NC(=O)[C@@H](Cc2ccccc2)CCCC[C@H]2CNC(=O)[C@H]2C[C@@H](C#N)NC1=O [Example 39]	100 to 1000	1000 to 20000
CC(C)(C)C(=O)N[C@H]1CCCC[C@H]2CNC(=O)[C@H]2C[C@@H](C#N)NC(=O)[C@@H]2CCCN2C1=O [Example 74]	1000 to 20000	1000 to 20000
CC(C)C[C@@H]1NC(=O)[C@@H](Cc2ccccc2)CCCCC[C@@H]2CNC(=O)[C@@H]2C[C@@H](C#N)NC1=O [Example 49]	> 20000	> 20000
CC(C)C[C@@H]1NC(=O)[C@@H](Cc2ccc(F)cc2)CCCC[C@H]2CNC(=O)[C@H]2C[C@@H](C#N)NC1=O [Example 43]	1000 to 20000	1000 to 20000
CC(C)(C)C(=O)N[C@H]1C/C=C/[C@H]2CNC(=O)[C@H]2C[C@@H](C#N)NC(=O)[C@@H]2[C@@H]3[C@H](CN2C1=O)C3(C)C [Example 63]	< 100	100 to 1000
CC(C)C[C@@H]1NC(=O)[C@@H](Cc2ccccc2)CCC[C@@H]2CNC(=O)[C@@H]2C[C@@H](C=O)NC1=O [Example 9]	100 to 1000	1000 to 20000
CC(C)C[C@@H]1NC(=O)CCCCCC[C@H]2CNC(=O)[C@@H]2C[C@@H](C=O)NC1=O [Example 48]	100 to 1000	100 to 1000
CC(C)C[C@@H]1NC(=O)CCCCC[C@H]2CCNC(=O)[C@@H]2C[C@@H](C=O)NC1=O [Example 34]	100 to 1000	1000 to 20000
CC(C)(C)C(=O)N[C@H]1CC/C=C/[C@H]2CNC(=O)[C@H]2C[C@@H](C#N)NC(=O)[C@@H]2[C@H]3CCC[C@H]3CN2C1=O [Example 86]	< 100	100 to 1000
CC(C)C[C@@H]1NC(=O)[C@@H](Cc2ccccc2)CCC[C@H]2CNC(=O)[C@@H]2C[C@@H](C=O)NC1=O [Example 17]	100 to 1000	100 to 1000
CC(C)C[C@@H]1NC(=O)C(OC2CCCCC2)CCC[C@H]2CNC(=O)[C@@H]2C[C@@H](C#N)NC1=O (some centres unmarked) [Example 23]	> 20000	> 20000
CC(C)C[C@@H]1NC(=O)CCCC[C@@H]2CNC(=O)[C@@H]2C[C@@H](C=O)NC1=O [Example 1]	1000 to 20000	> 20000
CC1(C)[C@@H]2[C@H]3C(=O)N[C@H](C#N)C[C@@H]4C(=O)NC[C@@H]4CCCC[C@H](NC(=O)c4cccc(Cl)c4Cl)C(=O)N3C[C@@H]21 [Example 134]	< 100	< 100
CC(C)(C)C(=O)N[C@H]1CCCC[C@H]2CCNC(=O)[C@@H]2C[C@@H](C#N)NC(=O)[C@@H]2[C@@H]3[C@H](CN2C1=O)C3(C)C [Example 65]	< 100	100 to 1000
N#C[C@@H]1C[C@@H]2C(=O)NC[C@@H]2CCCC[C@H](NC(=O)C(F)(F)F)C(=O)N2C[C@@H]3CCC[C@@H]3[C@H]2C(=O)N1 [Example 88]	< 100	100 to 1000
CC1(C)[C@@H]2[C@H]3C(=O)N[C@H](C#N)C[C@@H]4C(=O)NC[C@@H]4CCCC[C@H](NS(=O)(=O)C(F)(F)F)C(=O)N3C[C@@H]21 [Example 158]	< 100	< 100
CC1(C)[C@@H]2[C@H]3C(=O)N[C@H](C#N)C[C@@H]4C(=O)NC[C@@H]4CCCC[C@H](NC(=O)c4ccc(F)cc4)C(=O)N3C[C@@H]21 [Example 82]	< 100	< 100
CC1(C)[C@@H]2[C@H]3C(=O)N[C@H](C#N)C[C@@H]4C(=O)NC[C@@H]4CCCC[C@H](NC(=O)OC4(C(F)(F)F)CCC4)C(=O)N3C[C@@H]21 [Example 152]	< 100	< 100

Reference: patent US20260325540A1 (priority 2023, published 2026)
